Assay results reported in patent US9896422B2, “Tetracycline derivatives with reduced antibiotic activity and neuroprotective benefits” (Neumedics, priority 2008, dated 2018).
Where two headings read alike, the source gives them in different places.

Experiments:
E. Coli = assay: Antimicrobial susceptibility (zone of inhibition) test, Kirby-Bauer disc diffusion; assay type: cell-based; conditions: samples 30 ug/ml, Muller-Hinton agar, about 24 hrs
Method: (§1) Anti-microbial susceptibility (zone of inhibition) tests were conducted by an outside analytical laboratory. The Kirby-Bauer or disc diffusion method of assessing antimicrobial activity is an established literature procedure and was used with some modifications to the standard protocol: 1) S. Aureus and E. Coli were grown in Muller-Hinton broth and incubated at 30-35° C. for 18-24 hrs, 2) samples were diluted in sterile water for injections or pure water to achieve a concentration of 30 ug/ml and were plated in triplicate, and 3) the test plates were prepared using Muller-Hinton agar and incubated at 30-35° C. for approximately 24 hrs.
(§2) The diameters of the zone of inhibition (if present) around the test sample were measured using calibrated calipers. […] 3a has some activity (average zone of 24.45 mm) against S. Aureus.

S. Aureus = assay: as above; assay type: cell-based; conditions: for The diameter of the zone including sample: S. Aureus, samples 30 ug/ml, Muller-Hinton agar, about 24 hrs, average of triplicate; for antimicrobial activity in this assay: disc diffusion, S. Aureus and E. Coli, 30 ug/ml
Method: as §1, §2

[1] = Intravenous blood brain barrier (BBB) penetration assay in mice; assay type: in vivo, CD-1 mice; conditions: 1 mg/kg tail-vein
Method: Intravenous blood brain barrier (BBB) penetration of Compounds 38 and 3b in mice was assessed by an outside analytical laboratory using the standard protocol. CD-1 mice were tail-vein injected with 38 or 3b (1 mg/kg, n=3), and the plasma and brain samples were collected at 30, 60 and 180 min time intervals. The concentration of 38 and 3b in brain (ng/g tissue), plasma and the ratio of the brain concentration at each time point were determined by acetonitrile precipitation of the test compounds from the samples followed by HPLC-MS?MS analysis.
After treatment of the animals with the test compounds, plasma samples were collected by cardiac puncture. Blood aliquots (300-400 μL) were collected in lithium heparincoated tubes, mixed gently, then kept on ice and centrifuged at 2,500×g for 15 minutes at 4° C. within 1 hour of collection. Plasma was then harvested and kept frozen at −20° C. until further processing.
Immediately after blood sampling, mice were decapitated and the whole brains were quickly removed, rinsed with cold saline (0.9% NaCl, g/mL), surface vasculature ruptured, blotted with dry gauze weighed and kept on ice until further processing within 1 hour of collection. Each brain was homogenized in 1.5 mL cold phosphate-buffered saline, pH 7.4, for 10 seconds on ice using a POWERGEN 125 homogenizer. Each sample was then stored at −20° C. until further processing.
Brain homogenates collected as above were processed by adding an equal volume of chilled 26% (g/mL) neutral Dextran (average MW 65,000-85,000, from Sigma, catalog number D-1390) solution to obtain a final Dextran concentration of 13%. The homogenate was centrifuged at 5400×g for 15 minutes at 4° C. Supernatents were subsequently processed using acetonitrile precipitation and analyzed by HPLC-MS. A brain calibration curve was generated by spiking drug-free brain homogenate from the control animals with test compound at specified concentration levels. The spiked brain homogenate samples were processed together with the unknowns using the same procedure. Processed brain samples were stored frozen (−20° C.) until LC-MS/MS analysis.
Plasma samples collected as above were processed and analyzed as for the brain homogenate supernatents described above.
After processing, all samples were analyzed using HPLC-MS/MS analysis. HPLC analysis employed a Synergi Max-RP 80 HPLC column (2×50 mm, 4 μm, Phenomenex Part No. 00B-4337-B0), using a first mobile phase of 13.3 mM ammonium formate/6.7 mM formic acid in water, and a second mobile phase of 6 mM ammonium formate/3 mM formic acid in water/CH3CN (1/9, v/v). MS/MS analysis was done on a TSQ QUANTUM with selected reaction monitoring, positive ion mode, using a capillary temperature of 325° C. and a capillary voltage of 4.0 kV. Peak areas were recorded, and the concentrations of the test compound in the unknown brain samples were determined using the respective calibration curves.

[2] = Stability testing in solution; assay type: physicochemical; conditions: de-ionized water, saline and PBS at pH of about 3 to 7.5
Method: Compounds of the present invention will be stable in solution and/or in powder form. To test for stability in different solutions (e.g., de-ionized water, de-ionized water adjusted with K2HPO4 to pH 7.4, de-ionized water adjusted with NaOH to pH 9, saline solution or PBS). The compounds are tested for degradation at different times at different temperatures. By way of example, compound 3b was stable in de-ionized water saline and PBS at pH of about 3 to 7.5.

Question: Which “The diameter of the zone including sample” value (E. Coli) does the source give for `CN(C)c1cc2ncoc2c2c1C[C@H]1C[C@H]3[C@H](N(C)C)C(O)=C(C(N)=O)C(=O)[C@@]3(O)C(O)=C1C2=O` [Compound 3a, (6aR,7aS,8S,11aS)-5,8-bis(dimethylamino)-9,11a,12trihydroxy-11,13-dioxo-6,6a,7,7a,8,11,11a,13-octahydrotetraceno[2,1-d]oxazole-10carboxamide] here?
Answer: no zone

Question: What does the source list for `CN(C)c1cc2c(c3c1C[C@H]1C[C@H]4[C@H](N(C)C)C(O)=C(C(N)=O)C(=O)[C@@]4(O)C(O)=C1C3=O)OCC(=O)N2` [Compound 38, (6aR,7aS,8S,11aS)-5,8-bis(dimethylamino)-9,11a,12-trihydroxy-2,11,13trioxo-2,3,6,6a,7,7a,8,11,11a,13-decahydrotetraceno[2,1-d]morpholine-10-carboxamide]?
Answer: The diameter of the zone including sample (E. Coli): no zone; The diameter of the zone including sample (S. Aureus): no zone; antimicrobial activity in this assay (S. Aureus): no antimicrobial activity

Question: What does the source list for `CN(C)c1cc2[nH]c(=O)oc2c2c1C[C@H]1C[C@H]3[C@H](N(C)C)C(O)=C(C(N)=O)C(=O)[C@@]3(O)C(O)=C1C2=O` [Compound 3b, (6aR,7aS,8S,11aS)-5,8bis(dimethylamino)-9,11a,12-trihydroxy-2,11,13-trioxo-2,3,6,6a,7,7a,8,11,11a,13decahydrotetraceno[2,1-d]oxazole-10-carboxamide]?
Answer: The diameter of the zone including sample (E. Coli): no zone; The diameter of the zone including sample (S. Aureus): no zone; antimicrobial activity in this assay (S. Aureus): no antimicrobial activity; blood brain barrier penetration in vivo [1]: acceptable; concentration in the brain ([1]; 180 min, n=3): below the limit of quantitation; concentration at 30 min ([1]; CD-1, mouse, brain, intravenous, 30 min, n=3, read-out: concentration in the brain): 6.7 ng/g; concentration at 60 min ([1]; CD-1, mouse, brain, intravenous, n=3, read-out: concentration in the brain): 5.8 ng/g; Kp at 0.5 h ([1]; CD-1, mouse, brain/plasma, intravenous, 30 min, read-out: Calculated ratio of brain to plasma concentration): 0.07; concentration at 30 min ([1]; CD-1, mouse, plasma, intravenous, 30 min, n=3, read-out: Plasma concentration): 97 ng/mL; concentration at 60 min ([1]; CD-1, mouse, plasma, intravenous, n=3, read-out: Plasma concentration): 27 ng/mL; concentration at 180 min ([1]; CD-1, mouse, plasma, intravenous, 180 min, n=3): 4 ng/mL; stability in solution [2]: stable
